Patent publication KR20170021349A, “다양한 질병의 치료를 위한 jnk 신호 전달 경로의 세포 투과성 펩타이드 억제자의 새로운 용도” (자이겐 인플라메이션 리미티드, priority 2014, dated 2017)

Key:
Brown Norway rats = assay: STZ diabetic retinopathy prevention, intravitreal, ERG; assay type: in vivo, rat
[1] = test system: Hep G2 tumours in SWISS nude mice; assay: Orthotopic Hep G2 human liver carcinoma, 1 mg/kg; assay type: in vivo, mouse
TC-3 cells = assay: Cellular import of fluorescein-labelled TAT and TAT-IB1(s) peptides; assay type: cell-based
porcine islets = assay: Porcine islet isolation; assay type: cell-based, pig
[2] = test system: Mapk14f/f and Mapk14Δli* mice; assay: DEN-induced hepatocyte proliferation (Ki67) in Mapk14-deficient mice; assay type: in vivo, mouse; settings: 20 mg/kg i.p. before DEN, 48 h
Jurkat cells = assay: PMA & ionomycin-induced cytokine production; assay type: cell-based; settings: Fig. 27 D-F
[3] = Stability of stock and diluted solutions; assay type: physicochemical
db/db mice = assay: db/db mouse model of type 2 diabetes; assay type: in vivo
Sprague-Dawley rats = assay: STZ diabetic nephropathy model, chronic administration; assay type: in vivo, rat; settings: 1, 2, 4 mg/kg i.v. weekly, 9 weeks
[4] = Previous open-label dose-escalation trial in post-surgery/post-trauma intraocular inflammation; assay type: in vivo, human; settings: 45, 90, 450, 900 μg subconj., 20 patients
primary macrophages = assay: Uptake into primary cultured macrophages (specific antibody); assay type: cell-based; settings: Fig. 24
[5] = Distribution of C14-labelled peptide, 72 h after s.c., i.v., i.p.; assay type: in vivo, mouse; settings: 1 mg/kg, Fig. 25
[6] = Phase I single ascending i.v. dose study, healthy male volunteers; assay type: in vivo, human
murine T cells = assay: PMA & ionomycin-induced cytokine production in primary cells; assay type: cell-based, mouse; settings: Fig. 28 D-E
Wistar rats = assay: PAN-induced nephropathy, frequency of administration; assay type: in vivo, rat
C57BL/6 mice = assay: Bleomycin-induced lung fibrosis, day 10; assay type: in vivo, mouse; settings: for lymphocyte recruitment and total cell number in BAL: 3x in 10 days; for decrease of inflammatory cell accumulation, fibrotic areas, loss of lung architecture (histology): day 10

NH2-DQSRPVQPFLNLTTPRKPRPPRRRQRRKKRG-COOH (H-DQSRPVQPFLNLTTPRKPRPPRRRQRRKKRG-OH; also: D-amino acids (positions not given here)) [XG-102]
photopic 1Hz flicker A-wave amplitude (Brown Norway rats; 2 μg/eye, day 20): -2 μV | photopic 1Hz flicker B-wave amplitude (Brown Norway rats; 2 μg/eye, day 20): 45 μV | photopic 29Hz flicker B-wave amplitude (Brown Norway rats; 2 μg/eye, day 20): 9 μV | scotopic single flash 0dB A-wave amplitude (Brown Norway rats; 2 μg/eye, day 20): -147 μV | scotopic single flash 0dB B-wave amplitude (Brown Norway rats; 2 μg/eye, day 20): 278 μV | scotopic single flash -10dB A-wave amplitude (Brown Norway rats; 2 μg/eye, day 20): -84 μV | scotopic single flash -30dB B-wave amplitude (Brown Norway rats; 2 μg/eye, day 20): 166 μV | substance-related deaths (Brown Norway rats; 0.2 and 2 μg/eye IVT): XG-102 관련된 사망은 없었다 | overall effect on decrease of ERG wave amplitudes (Brown Norway rats; rat, in vivo): 웨이브 진폭의 감소를 역전시키는 경향이 있다 | vascular leakage on fluorescein angiography (Brown Norway rats; rat, in vivo): 혈관 누출을 나타내지 않았고 | tolerance (body weight) ([1]; 1 mg/kg/inj i.v.): 내약성이 우수함 | T/C ([1]; 1 mg/kg/inj i.v. [Q4Dx4]x2): 120% | mean survival time (as headed) ([1]; 1 mg/kg/inj i.v. [Q4Dx4]x2, vehicle 102): 123 일 | median survival time ± SD (as headed) ([1]; 1 mg/kg/inj i.v. [Q4Dx4]x2 from D10, D41, vehicle 102 ± 8): 111 ± 14 days | time to enter cells (TC-3 cells; 1 μM labelled peptide): < 5 분 | stability inside cells (TC-3 cells; time course): 극도로 안정하다 | isolations with OCR/DNA above cut-off, successfully transplanted into NHPs (porcine islets): 6/6 | relative c-fos gene expression (porcine islets; 10 μM): 감소시키고 | JNK activation during isolation (porcine islets; 10 μM in pancreas and isolation solutions): 차단하고 | viability of freshly isolated islets (OCR/DNA, ATP/protein) (porcine islets; 10 μM vs paired untreated control): 통계적으로 현저하고 중요한 영향을 가짐 | hyperproliferation of Mapk14-/- hepatocytes (Ki67) [2]: 되돌린다 | PMA & ionomycin-induced IFNg, IL-6, IL-2 production (Jurkat cells): 사이토카인 방출을 억제한다 | stability of diluted formulations for animal dosing ([3]; 2-4°C): 24 시간 | stability of stock solution (1 mM) ([3]; about -80°C): 3 개월 | stability of stock solution (10 mM in water) ([3]; about -80°C): ≥ 100 일 | stability of diluted formulations for animal dosing ([3]; room temperature): 24 시간 | stability in saline ([3]; room temperature, 10 μg/ml - 50 mg/ml): 8 시간 | effect on fasting blood glucose (db/db mice; 1 mg/kg s.c. daily 28 days): 효과가 관찰되지 않았다 | effect on body weight (db/db mice; 1 mg/kg, 28 days): 효과가 관찰되지 않았다 | fasting blood glucose plateau (db/db mice; 10 mg/kg s.c. daily 21 days, persisted to day 111, p<0.001): ~5 mmol/L | brain, spleen, heart weight (db/db mice; 10 mg/kg, day 111): 현저한 효과가 관찰되지 않았다 | epididymal (p<0.05) and retroperitoneal (p<0.01) fat mass (db/db mice; 10 mg/kg, day 111): 현저한 감소를 관찰했다 | kidney (p<0.05) and liver (p<0.01) mass (db/db mice; 10 mg/kg, day 111): 현저한 감소가 관찰되었다 | plasma insulin, MCP-1, IL-6, tPAI-1, TNF (db/db mice; 10 mg/kg, days 57, 77, 108): 현저한 효과가 발견되지 않았으며 | plasma resistin (db/db mice; 10 mg/kg, days 77 and 108): 현저하게 높았다 | 24 h food and water intake, urine and faeces production (db/db mice; 10 mg/kg, metabolic cages): 현저한 효과는 관찰되지 않았다 | body weight gain (db/db mice; 10 mg/kg, from day 28 to 111): 명확하고 현저한 예방 | injection-site finding in subcutaneous tissue (db/db mice; high dose, after about 2 weeks of dosing, progressed to open wounds, healed after end of dosing): 결절 섬유화가 발견되었고 | body weight vs vehicle-treated STZ rats (Sprague-Dawley rats): 차이를 나타내지 않았다 | safety and tolerability [4]: 안정하고 내약성이 우수하다 | incorporation into primary macrophages (primary macrophages): 강하게 병합된다 | tissue accumulation [5]: 간, 비장 및 골수 대부분에서 XG-102 펩타이드의 축적 | time at which plasma concentration fell below LLOQ ([6]; 10 μg/kg i.v. infusion): ≤ 2 시간 | time at which plasma concentration fell below LLOQ ([6]; 40 μg/kg, after start of infusion): 3 시간 | time at which plasma concentration fell below LLOQ ([6]; 80 μg/kg, after start of infusion): ≤ 7 시간 | inter-subject variability of PK parameters (CV% of geometric mean) ([6]; 80 μg/kg, except MRT): 29-44% | increase of AUC0-last with dose ([6]; 10-80 μg/kg): 선형 이상의 비율로 증가했다 | inter-subject variability of PK parameters (CV% of geometric mean) ([6]; 10 and 40 μg/kg, most parameters): 15-30% | increase of Cmax with dose ([6]; 40 to 80 μg/kg): 선형 이상의 비율로 증가하는 것으로 나타났다 | safety and tolerability ([6]; single i.v. 10, 40 or 80 μg/kg): 안전하고 내약성이 우수했다 | PMA & ionomycin-induced TNFa, IFNg production (murine T cells): 사이토카인 방출을 억제한다 | glomerular injury score (GIS) (Wistar rats; 4 mg/kg i.v. x1 (d21), day 49): 1.53 ± 0.05 | glomerular injury score (GIS) (Wistar rats; 4 mg/kg i.v. x1 (d21), day 77, PAN/vehicle 1.39 ± 0.10): 0.82 ± 0.04 | percentage of injured glomeruli (Wistar rats; 4 mg/kg i.v. x1, day 77 (PAN/vehicle 91%)): 69% | glomerular injury score (GIS) (Wistar rats; 4 mg/kg i.v. x2 (d21, d35), day 49, P<0.01): 1.26 ± 0.06 | glomerular injury score (GIS) (Wistar rats; 4 mg/kg i.v. x4 (weekly from d21), day 49, PAN/vehicle 1.50 ± 0.06): 0.94 ± 0.05 | percentage of injured glomeruli (Wistar rats; 4 mg/kg i.v. x4, day 49): 76.9% | mean % glomeruli with grade 1 (Wistar rats; 4 mg/kg i.v. x4, day 49 (PAN/vehicle 37%)): 61% | mean % glomeruli with grade 2 (Wistar rats; 4 mg/kg i.v. x4, day 49 (PAN/vehicle 46%)): 15% | lymphocyte recruitment and total cell number in BAL (C57BL/6 mice; 0.001 mg/kg s.c.): 현저하게 감소시켰다 | decrease of inflammatory cell accumulation, fibrotic areas, loss of lung architecture (histology) (C57BL/6 mice; 0.001 mg/kg): 관찰되었으나 | lymphocyte recruitment and total cell number in BAL (C57BL/6 mice; 0.1 mg/kg s.c.): 효과가 없었다 | decrease of inflammatory cell accumulation, fibrotic areas, loss of lung architecture (histology) (C57BL/6 mice; 0.1 mg/kg): 관찰되지 않았다
